Experimental data as given in paper PMC9065177, “Polymer chimera of stapled oncolytic peptide coupled with anti-PD-L1 peptide boosts immunotherapy of colorectal cancer” (Theranostics, 2022).
Positions of bridges follow the written chain, without caps; N, C: chain ends. Non-standard residues stand in square brackets, D forms with d. Residues, ends and D or L forms follow the SMILES beside them. S5 = C=CCCC[C@](C)(N)C(=O)O

Legend:
red blood cells (RBC) = assay: Hemolysis assay (hemoglobin release from erythrocytes); assay type: cell-based, mice
Protocol: The hemolytic activities of the peptides and peptide-polymer conjugates were evaluated by determining hemoglobin release from suspensions of mice blood. Fresh erythrocytes were obtained from the whole blood by centrifuging at 4 ℃ 1000 g for 30 min and washing with PBS 2 times. Then erythrocytes were diluted with PBS at the volume ration of 1:10. The 96-well plate was added to 100 μL erythrocyte suspension per well and incubated with peptides and conjugates solution with different concentrations for 1 h at 37 ℃, following centrifuged at 1000 rpm for 10 min. The supernatants were obtained and monitored by measuring absorbance at 570 nm (BioTek Cytation 5, USA) as previously described. 0.1% (v/v) Triton X-100 was used as a positive control and PBS was used as a negative control.

[1] = Proteolytic stability in α-chymotrypsin solution; assay type: in vitro ADME; conditions: α-chymotrypsin solution, pH 7.4; after 1 h exposure to α-chymotrypsin; read-out: peptide remaining intact
Protocol: (§1) The peptides were dissolved in H2O to a final concentration at 2 mM, respectively. α-Chymotrypsin was dissolved in PBS (0.5 ng/μL, containing 2 mM CaCl2, pH 7.4). Then, the peptide solutions (50 μL) were incubated with α-chymotrypsin solution (950 μL) at 37 ℃. 100 μL of digestion mixture was taken at the different time and then quenched with 20 μL of hydrochloric acid (1 M). The percent residual peptide was monitored by HPLC at 214 nm. Each experiment was performed in triplicate.

α-Chymotrypsin = α-Chymotrypsin (Bos taurus, UniProt P00766); assay: Proteolytic stability in α-chymotrypsin solution; assay type: in vitro ADME
Protocol: as §1

For `CC[C@H](C)[C@H](NC(C)=O)C(=O)N[C@@H](CC(N)=O)C(=O)N[C@@H](CC(C)C)C(=O)N[C@@H](CCCCN)C(=O)N[C@@H](C)C(=O)N[C@@H](CC(C)C)C(=O)N[C@@H](C)C(=O)N[C@@H](C)C(=O)N[C@@]1(C)CCCC=CCCC[C@@](C)(C(=O)N[C@@H](CC(C)C)C(N)=O)NC(=O)[C@H](CCCCN)NC(=O)[C@H](CCCCN)NC(=O)[C@H](C)NC1=O` [MP9] (Ac-INLKALAA[S5]AKK[S5]L-NH2; staple 9-13), the “RBC hemolytic activity (in words)” value (red blood cells (RBC)) was “lowest level of RBC hemolysis”, the remaining at 1 h, 0.1 mM [1] was > 87% and the half-life (α-Chymotrypsin; 0.5 ng/μL α-chymotrypsin, pH 7.4, 37 ℃, read-out: T1/2 in α-chymotrypsin solution (converted)) was 5.27 h. For the same molecule, the “fold increase in half-life (T1/2) versus MP” value (α-Chymotrypsin; α-chymotrypsin) was 12.55 fold.
